# Assay results published in ChEMBL document CHEMBL4130462, “Natural isoflavone biochanin A as a template for the design of new and potent 3-phenylquinolone efflux inhibitors against Mycobacterium avium” (Eur J Med Chem, 2017).
# How the values were obtained:
# [1] = system: Mycobacterium avium; experiment: Antimycobacterial activity against Mycobacterium avium ATCC 25291 assessed as reduction in bacterial viability incubated for 3 days by MTT assay; assay type: organism-based; conditions: mycobacterium avium subsp. avium atcc 25291, 72 h
# [2] = system: Mycobacterium avium; experiment: Antimycobacterial activity against Mycobacterium avium isolate MAV3 assessed as reduction in bacterial viability incubated for 3 days by MTT assay; assay type: organism-based; conditions: 72 h
# [3] = Cytotoxicity in human monocyte-derived macrophages assessed as reduction in cell viability incubated for 3 days by alamar blue dye based assay; design: species or system Macrophage cell line; conditions: for CC50 at 72 h: human monocyte-derived macrophages; for MTC: macrophage cell line, 72 h
# [4] = system: Mycobacterium avium; conditions: 72 h
# Description: Antimycobacterial activity against Mycobacterium avium 104 assessed as reduction in bacterial viability incubated for 3 days by MTT assay
# [5] = system: Mycobacterium avium; conditions: in vivo, 72 h
# Description: Antimycobacterial activity against Mycobacterium avium 104 mc'2 3 assessed as reduction in bacterial viability incubated for 3 days by MTT assay
# [6] = system: Mycobacterium avium; conditions: in vivo, 72 h; remark: listed apart in the source
# Description: Antimycobacterial activity against Mycobacterium avium 104 mc'2 4 assessed as reduction in bacterial viability incubated for 3 days by MTT assay
# [7] = system: Mycobacterium avium; conditions: 104
# Description: Inhibition of multidrug resistance efflux pump in Mycobacterium avium 104 assessed as potentiation of clarithromycin -induced antibacterial activity by measuring clarithromycin MIC at 1/2 MIC incubated for 3 days by MTT assay
# [8] = system: Mycobacterium avium; conditions: 104; remark: listed apart in the source
# Description: Inhibition of multidrug resistance efflux pump in Mycobacterium avium 104 assessed as potentiation of clarithromycin -induced antibacterial activity by measuring clarithromycin MIC at 1/4 MIC incubated for 3 days by MTT assay
# [9] = system: Mycobacterium avium; conditions: 104 mc'2 3
# [10] = system: Mycobacterium avium; conditions: 104 mc'2 4
# [11] = system: Mycobacterium avium; conditions: isolate MAV1
# [12] = system: Mycobacterium avium; conditions: isolate MAV1; remark: listed apart in the source
# [13] = system: Mycobacterium avium; conditions: isolate MAV2
# Description: Inhibition of multidrug resistance efflux pump in Mycobacterium avium isolate MAV2 assessed as potentiation of clarithromycin -induced antibacterial activity by measuring clarithromycin MIC at 1/2 MIC incubated for 3 days by MTT assay (Rvb = >1024 ug/ml)
# [14] = system: Mycobacterium avium; conditions: isolate MAV2; remark: listed apart in the source
# Description: Inhibition of multidrug resistance efflux pump in Mycobacterium avium isolate MAV2 assessed as potentiation of clarithromycin -induced antibacterial activity by measuring clarithromycin MIC at 1/4 MIC incubated for 3 days by MTT assay (Rvb = >1024 ug/ml)
# [15] = system: Mycobacterium avium; conditions: isolate MAV3
# [16] = system: Mycobacterium avium; conditions: isolate MAV3; remark: listed apart in the source
# [17] = system: Mycobacterium avium; conditions: isolate MAV4
# Description: Inhibition of multidrug resistance efflux pump in Mycobacterium avium isolate MAV4 assessed as potentiation of clarithromycin -induced antibacterial activity by measuring clarithromycin MIC at 1/2 MIC incubated for 3 days by MTT assay
# [18] = system: Mycobacterium avium; conditions: isolate MAV4; remark: listed apart in the source
# Description: Inhibition of multidrug resistance efflux pump in Mycobacterium avium isolate MAV4 assessed as potentiation of clarithromycin -induced antibacterial activity by measuring clarithromycin MIC at 1/4 MIC incubated for 3 days by MTT assay
# [19] = system: Mycobacterium avium subsp. avium ATCC 25291
# Description: Inhibition of multidrug resistance efflux pump in Mycobacterium avium ATCC 25291 assessed as potentiation of clarithromycin -induced antibacterial activity by measuring clarithromycin MIC at 1/2 MIC incubated for 3 days by MTT assay
# [20] = system: Mycobacterium avium subsp. avium ATCC 25291; remark: listed apart in the source
# Description: Inhibition of multidrug resistance efflux pump in Mycobacterium avium ATCC 25291 assessed as potentiation of clarithromycin -induced antibacterial activity by measuring clarithromycin MIC at 1/4 MIC incubated for 3 days by MTT assay
# [21] = system: Mycobacterium avium; conditions: 104; remark: listed apart in the source
# [22] = system: Mycobacterium avium; conditions: 104 mc'2 3; remark: listed apart in the source
# [23] = system: Mycobacterium avium; conditions: 104 mc'2 4; remark: listed apart in the source
# [24] = system: Mycobacterium avium; conditions: isolate MAV1; remark: listed apart in the source
# [25] = system: Mycobacterium avium; conditions: isolate MAV3; remark: listed apart in the source
# [26] = system: Mycobacterium avium; conditions: isolate MAV3; remark: listed apart in the source
# [27] = system: Mycobacterium avium; conditions: isolate MAV4; remark: listed apart in the source
# [28] = system: Mycobacterium avium; conditions: isolate MAV4; remark: listed apart in the source
# [29] = system: Mycobacterium avium subsp. avium ATCC 25291; remark: listed apart in the source
# [30] = system: Mycobacterium avium subsp. avium ATCC 25291; remark: listed apart in the source
# [31] = system: Mycobacterium avium; conditions: 104; remark: listed apart in the source
# [32] = system: Mycobacterium avium; conditions: 104 mc'2 3; remark: listed apart in the source
# [33] = system: Mycobacterium avium; conditions: 104 mc'2 4; remark: listed apart in the source
# [34] = system: Mycobacterium avium; conditions: 104 mc'2 4; remark: listed apart in the source
# [35] = system: Mycobacterium avium; conditions: isolate MAV1; remark: listed apart in the source
# [36] = system: Mycobacterium avium; conditions: isolate MAV2; remark: listed apart in the source
# [37] = system: Mycobacterium avium; conditions: isolate MAV2; remark: listed apart in the source
# [38] = system: Mycobacterium avium; conditions: isolate MAV3; remark: listed apart in the source
# [39] = system: Mycobacterium avium; conditions: isolate MAV3; remark: listed apart in the source
# [40] = system: Mycobacterium avium subsp. avium ATCC 25291; remark: listed apart in the source
# [41] = system: Mycobacterium avium; conditions: 104 mc'2 3; remark: listed apart in the source
# [42] = system: Mycobacterium avium; conditions: 104 mc'2 3; remark: listed apart in the source
# [43] = system: Mycobacterium avium; conditions: 104 mc'2 4; remark: listed apart in the source
# [44] = system: Mycobacterium avium; conditions: isolate MAV2; remark: listed apart in the source
# [45] = system: Mycobacterium avium; conditions: isolate MAV4; remark: listed apart in the source
# [46] = system: Mycobacterium avium subsp. avium ATCC 25291; remark: listed apart in the source
# [47] = system: Mycobacterium avium subsp. avium ATCC 25291; remark: listed apart in the source
# [48] = system: Mycobacterium avium; conditions: 104; remark: listed apart in the source
# [49] = system: Mycobacterium avium; conditions: 104; remark: listed apart in the source
# [50] = system: Mycobacterium avium; conditions: 104 mc'2 4; remark: listed apart in the source
# [51] = system: Mycobacterium avium; conditions: 104 mc'2 4; remark: listed apart in the source
# [52] = system: Mycobacterium avium; conditions: isolate MAV1; remark: listed apart in the source
# Description: Inhibition of multidrug resistance efflux pump in Mycobacterium avium isolate MAV1 assessed as potentiation of ofloxacin-induced antibacterial activity by measuring ofloxacin MIC at 1/4 MIC incubated for 3 days by MTT assay (Rvb = 4 ug/ml)
# [53] = system: Mycobacterium avium; conditions: isolate MAV2; remark: listed apart in the source
# Description: Inhibition of multidrug resistance efflux pump in Mycobacterium avium isolate MAV2 assessed as potentiation of ofloxacin-induced antibacterial activity by measuring ofloxacin MIC at 1/4 MIC incubated for 3 days by MTT assay
# [54] = system: Mycobacterium avium; conditions: isolate MAV3; remark: listed apart in the source
# [55] = system: Mycobacterium avium; conditions: isolate MAV3; remark: listed apart in the source
# [56] = system: Mycobacterium avium; conditions: isolate MAV4; remark: listed apart in the source
# [57] = system: Mycobacterium avium subsp. avium ATCC 25291; remark: listed apart in the source
# [58] = system: Mycobacterium avium; conditions: 104; remark: listed apart in the source
# [59] = system: Mycobacterium avium; conditions: 104; remark: listed apart in the source
# [60] = system: Mycobacterium avium; conditions: 104 mc'2 3; remark: listed apart in the source
# [61] = system: Mycobacterium avium; conditions: 104 mc'2 4; remark: listed apart in the source
# [62] = system: Mycobacterium avium; conditions: 104 mc'2 4; remark: listed apart in the source
# [63] = system: Mycobacterium avium; conditions: isolate MAV1; remark: listed apart in the source
# [64] = system: Mycobacterium avium; conditions: isolate MAV1; remark: listed apart in the source
# [65] = system: Mycobacterium avium; conditions: isolate MAV2; remark: listed apart in the source
# [66] = system: Mycobacterium avium; conditions: isolate MAV3; remark: listed apart in the source
smiles,measurement,setting,value
CN(C)CCCN1c2ccccc2Sc2ccc(Cl)cc21 [CHLORPROMAZINE],MIC,[1],30 µg/mL
same,MIC,[2],30 µg/mL
same,CC50 at 72 h,[3],22.2 µM
same,MTC,[3],1.25 µM
same,MIC,[4],30 µg/mL
same,MIC,[5],30 µg/mL
same,MIC,[6],30 µg/mL
same,MIC,[7],1 µg/mL
same,MIC,[8],4 µg/mL
same,MIC,[9],< 4 µg/mL
same,MIC,[10],> 512 µg/mL
same,MIC,[11],< 0.031 µg/mL
same,MIC,[12],0.0625 µg/mL
same,MIC,[13],> 512 µg/mL
same,MIC,[14],> 512 µg/mL
same,MIC,[15],0.5 µg/mL
same,MIC,[16],4 µg/mL
same,MIC,[17],0.5 µg/mL
same,MIC,[18],2 µg/mL
same,MIC,[19],< 0.125 µg/mL
same,MIC,[20],1 µg/mL
same,MIC,[21],< 4 µg/mL
same,MIC,[22],< 4 µg/mL
same,MIC,[23],128 µg/mL
same,MIC,[24],< 4 µg/mL
same,MIC,[25],8 µg/mL
same,MIC,[26],128 µg/mL
same,MIC,[27],32 µg/mL
same,MIC,[28],128 µg/mL
same,MIC,[29],< 1 µg/mL
same,MIC,[30],16 µg/mL
same,MIC,[31],64 µg/mL
same,MIC,[32],> 512 µg/mL
same,MIC,[33],64 µg/mL
same,MIC,[34],> 512 µg/mL
same,MIC,[35],< 4 µg/mL
same,MIC,[36],> 512 µg/mL
same,MIC,[37],> 512 µg/mL
same,MIC,[38],16 µg/mL
same,MIC,[39],64 µg/mL
same,MIC,[40],16 µg/mL
same,MIC,[41],1 µg/mL
same,MIC,[42],4 µg/mL
same,MIC,[43],0.25 µg/mL
same,MIC,[44],4 µg/mL
same,MIC,[45],2 µg/mL
same,MIC,[46],< 0.25 µg/mL
same,MIC,[47],16 µg/mL
same,MIC,[48],1 µg/mL
same,MIC,[49],2 µg/mL
same,MIC,[50],1 µg/mL
same,MIC,[51],8 µg/mL
same,MIC,[52],1 µg/mL
same,MIC,[53],2 µg/mL
same,MIC,[54],8 µg/mL
same,MIC,[55],8 µg/mL
same,MIC,[56],44 µg/mL
same,MIC,[57],< 0.5 µg/mL
same,MIC,[58],3.12 µg/mL
same,MIC,[59],6.25 µg/mL
same,MIC,[60],0.78 µg/mL
same,MIC,[61],0.39 µg/mL
same,MIC,[62],6.25 µg/mL
same,MIC,[63],< 0.195 µg/mL
same,MIC,[64],1.56 µg/mL
same,MIC,[65],12.5 µg/mL
same,MIC,[66],3.12 µg/mL
CSc1ccc2c(c1)N(CCC1CCCCN1C)c1ccccc1S2 (centres undefined) [THIORIDAZINE],MIC,[1],30 µg/mL
same,MIC,[2],30 µg/mL
same,CC50 at 72 h,[3],13.8 µM
same,MTC,[3],2.5 µM
same,MIC,[4],30 µg/mL
same,MIC,[5],30 µg/mL
same,MIC,[6],30 µg/mL
same,MIC,[7],2 µg/mL
same,MIC,[8],4 µg/mL
same,MIC,[9],< 4 µg/mL
same,MIC,[10],> 512 µg/mL
same,MIC,[11],< 0.031 µg/mL
same,MIC,[12],0.0625 µg/mL
same,MIC,[13],256 µg/mL
same,MIC,[14],> 512 µg/mL
same,MIC,[15],2 µg/mL
same,MIC,[16],4 µg/mL
same,MIC,[17],1 µg/mL
same,MIC,[18],4 µg/mL
same,MIC,[19],1 µg/mL
same,MIC,[20],2 µg/mL
same,MIC,[21],32 µg/mL
same,MIC,[22],< 4 µg/mL
same,MIC,[23],128 µg/mL
same,MIC,[24],< 4 µg/mL
same,MIC,[25],64 µg/mL
same,MIC,[26],128 µg/mL
same,MIC,[27],64 µg/mL
same,MIC,[28],256 µg/mL
same,MIC,[29],4 µg/mL
same,MIC,[30],32 µg/mL
same,MIC,[31],128 µg/mL
same,MIC,[32],> 512 µg/mL
same,MIC,[33],32 µg/mL
same,MIC,[34],> 512 µg/mL
same,MIC,[35],< 4 µg/mL
same,MIC,[36],128 µg/mL
same,MIC,[37],> 512 µg/mL
same,MIC,[38],64 µg/mL
same,MIC,[39],128 µg/mL
same,MIC,[40],32 µg/mL
same,MIC,[41],< 0.125 µg/mL
same,MIC,[42],4 µg/mL
same,MIC,[43],0.5 µg/mL
same,MIC,[44],0.25 µg/mL
same,MIC,[45],4 µg/mL
same,MIC,[46],8 µg/mL
same,MIC,[47],32 µg/mL
same,MIC,[48],4 µg/mL
same,MIC,[49],4 µg/mL
same,MIC,[50],0.25 µg/mL
same,MIC,[51],8 µg/mL
same,MIC,[52],1 µg/mL
same,MIC,[53],1 µg/mL
same,MIC,[54],8 µg/mL
same,MIC,[55],16 µg/mL
same,MIC,[56],16 µg/mL
same,MIC,[57],4 µg/mL
same,MIC,[58],6.25 µg/mL
same,MIC,[59],12.5 µg/mL
same,MIC,[60],1.56 µg/mL
same,MIC,[61],0.78 µg/mL
same,MIC,[62],12.5 µg/mL
same,MIC,[63],< 0.195 µg/mL
same,MIC,[64],0.78 µg/mL
same,MIC,[65],12.5 µg/mL
same,MIC,[66],12.5 µg/mL
